Experimental data as given in patent publication US11434270B2, “Protein for neutralizing programmed necrocytosis promotion antibody, and application of protein” (SHANGHAI JW INFLINHIX CO., LTD., priority 2015, dated 2022).
Where a chain is given by its changes, count along the chain named.

B1: QLQWLNRRANALLANGVELRDNQLVVPSEGLYLIYSQVLFKGQGCPSTHVLLTHTISRIAVSYQTKVNLLSAIKSPCQRE (protein)
chain: QLQWLNRRANALLANGVELRDNQLVVPSEGLYLIYSQVLFKGQGCPSTHVLLTHTISRIAVSYQTKVNLLSAIKSPCQRE
B2: QLQWLNRRANALLANGVELRDNQLVVPSEGLYLIYSQVLFKGQGCPSTHVLLTHTISRIAVFHQTKVNLLSAIKSPCQRE (protein)
chain: B1 chain with S62F, Y63H
B3: 244-12: cell necrosis-promoting monoclonal antibody binding TNF epitope QLVVPSE; light chain SEQ ID NO: 9, heavy chain SEQ ID NO: 10 (antibody, listed as Homo sapiens)
heavy: QIQLVQSGPELKKPGETVKISCKASGYTFTNYGMNWVKQAPGKGLKWMGWINTYTGEPTYADDFKGRFAFSLETSANTAYLQINNLRNEGMATYFCARHYRYAWFPYWGQGTLVTVSAAKTTPPSVYPLAPGCGDTTGSSVTLGCLVKGYFPESVTVTWNSGSLSSSVHTFPALLQSGLYTMSSSVTVPSSTWPSQTVTCSVAHPASSTTVDKKLEPSGPISTINPCPPCKECHKCPAPNLEGGPSVFIFPPNIKDVLMISLTPKVTCVVVDVSEDDPDVQISWFVNNVEVHTAQTQTHREDYNSTIRVVSTLPIQHQDWMSGKEFKCKVNNKDLPSPIERTISKIKGLVRAPQVYILPPPAEQLSRKDVSLTCLVVGFNPGDISVEWASNGHTEENYKDTAPVLDSDGSYFIYSKLNMKTSKWEKTDSFSCNVRHEGLKNYYLKKTISRSPGK
light: DIQMTQSPASLSASVGETVTITCRASGNIHIYLAWYQQKQGKSPQLLVYNAKTLADGVPSRFSGSGSGTQYSLKINSLQPEDFGSYYCQHFWSIPWTFGGGTKLEIKRADAAPTVSIFPPSSEQLTSGGASVVCFLNNFYPKDINVKWKIDGSERQNGVLNSWTDQDSKDSTYSMSSTLTLTKDEYERHNSYTCEATHKTSTSPIVKSFNRNEC

Key:
[1] = test system: L929 cells; experiment: Apoptosis and necrosis test (live/dead staining, active caspase-3, flow cytometry) in L929 cells; type: cell-based, mouse
Description: (§1) In the presence of TNF or TNF peptide with or without 20 μM z-VAD-FMK (R & D Systems, Minneapolis, Minn.) or 20 μM Necrotatin-1 (PeproTech, Rocky Hill, N.J.) (Immunotools, Friesoythe, Germany), cells were incubated overnight (or the time shown in the incubation diagram). In some experiments, TNF was co-cultured with cells and the monoclonal antibody with indicated concentration or synovial fluid. Cells were stained using live/dead cell staining kit (Invitrogen, Paisley, UK) according to the manufacturer's manual and fixed using a cytofix/cytoperm fixation/permeabilization solution kit (BD Pharmingen, Oxford, UK). Intracellular staining was then performed using FITC-conjugated anti-caspase-3 antibody (Cell Signaling Technology, Danvers, Mass., USA). Cells were harvested by CyAn flow cytometer (Beckman Coulter, Fullerton, Calif.), and data were analysed by Flowjo (Tree Star Inc. Ashland, Oreg.).

[2] = test system: cells; experiment: Apoptosis and necrosis test, cell line not stated; type: cell-based; settings: summary table
Description: as §1

[3] = test system: cell necrosis-promoting antibody (244-12); experiment: ELISA binding of polypeptide to cell necrosis-promoting antibody; settings: for binding to cell necrosis-promoting antibodies: summary table
Description: (§2) However, the reaction with synovial fluid of a control patient without autoantibodies (SF010) was negative. ELISA plates were coated with 2 μg/ml of P11-17, blocked with BSA, incubated with 244-12, SF024, SF045, SF010 at room temperature for 1 hour, and then identified with horseradish peroxidase […] anti-mouse or human IgG secondary antibody.

[4] = test system: cell necrosis caused by cell necrosis-promoting antibody; experiment: Inhibition of cell necrosis caused by cell necrosis-promoting antibody; type: cell-based
Description: as §1

[5] = test system: monoclonal antibody 244-12; experiment: Competitive inhibition ELISA of TNF binding to monoclonal antibody 244-12; settings: plates coated with TNF, peptide added, then 244-12
Description: (§3) ELISA plates were coated with 2 μg/ml of TNF at 4° C. overnight, or at 37° C. for 2 hours, and then incubated with a monoclonal antibodies at 37° C. for 1 hour. A second antibody conjugated to HRP was used to detect the reaction. For the inhibition assay, TNFR1 or synovial fluid was added together with the monoclonal antibody.
METHODS: plates were coated with TNF, and the indicated peptides were added to each well, and then the monoclonal antibody 244-12 was added.

[6] = test system: cells; experiment: Stimulation of cell proliferation; type: cell-based; settings: summary table
[7] = test system: cell necrosis-promoting antibodies present in joint fluid of arthritis patients; experiment: ELISA binding of polypeptide to autoantibodies in synovial fluid of arthritis patients; design: species or system human; settings: plate coated with 2 μg/ml of P11-17
Description: as §2

[8] = molecular target: T1, TNF (Homo sapiens, UniProt P01375); experiment: ELISA screening of monoclonal antibodies for binding to TNF; settings: screening of 33 monoclonal antibodies
T1 construct: purchased Immunotools
Description: as §3

[9] = test system: TNF receptors; experiment: L929 cell immunofluorescence microscopy: TNF/antibody binding to cell surface TNF receptors; type: cell-based, mouse
Description: At room temperature, 20 ng/ml of TNF and 2 μg/ml of mAb M26 or 244-12 were incubated for 1 hour. The mixture of TNF/M26 or TNF/244-12 were incubated on ice with L929 cells grown on coverslip for an another 15 minutes. The cells were fixed with 4% paraformaldehyde (PBS formulation) were for 10 minutes, blocked with phosphate buffer containing 0.5% BSA and 0.1% cold water fish gelatin for 15 minutes, and then incubated with rabbit anti-TNFR1 antibody (Abeam) for 1 hour. The cells were washed with PBS and then incubated with the relevant secondary antibody coupled to Alexa Fluor 488 or Alexa Fluor 568 (Invitrogen). Then the sample washed with PBS was mounted with Gelvatol/DABCO (Sigma-Aldrich). DNA was counterstained with DAPI (Sigma-Aldrich). All samples were analyzed by fluorescence microscopy at 60× using Nikon Eclipse 80i. Images were taken with NIS-Elements AR3.0 software using Hamamatsu camera.

[10] = test system: C2812 cells (chondrocytes); experiment: Apoptosis test (active caspase-3) in C2812 chondrocytes; type: cell-based, human; settings: antibody added to TNF
Description: as §1

T1 sequence (P01375 whole entry): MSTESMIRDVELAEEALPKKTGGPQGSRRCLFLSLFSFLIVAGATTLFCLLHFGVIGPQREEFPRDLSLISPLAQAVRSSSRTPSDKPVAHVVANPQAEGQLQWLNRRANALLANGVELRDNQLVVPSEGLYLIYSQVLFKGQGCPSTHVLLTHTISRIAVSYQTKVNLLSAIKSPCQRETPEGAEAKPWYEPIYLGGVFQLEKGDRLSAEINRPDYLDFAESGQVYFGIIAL

Molecule	Apoptosis [2]	Necrosis [2]	binding to cell necrosis-promoting antibodies [3]	Inhibition of cell necrosis ([4]; summary table)	competitive inhibition of binding of TNF to mAb 244-12 [5]	Stimulation of cell proliferation [6]	also measured
CN1C(=O)C(Cc2c[nH]c3ccccc23)NC1=S (stereo not drawn) [Nec-1, Necrotatin-1, reference compound]	–	–	–	–	–	–	necrosis induced by antibody 244-12 + TNF ([1]; Nec-1 added to 244-12+TNF, necrosis converted into apoptosis): can be inhibited
DNQLVVPSEG [P13-1]	no	no	Yes	Yes	significantly inhibited	no	–
Tumor necrosis factor α [TNFα]	Yes	Yes	Yes	no	–	Yes	cell fate of L929 cells ([1]; TNF alone): apoptosis
RDNQLVVPSE [P12-10]	no	no	Yes	Yes	significantly inhibited	no	–
QLVVPSEGLY [P13-3]	no	no	Yes	Yes	significantly inhibited	no	–
NQLVVPSEGL [P13-2]	no	no	Yes	Yes	significantly inhibited	no	–
B1	no	no	Yes	Yes	–	no	binding to purified cell necrosis-promoting antibody (244-12) ([3]; ELISA plate coated with 2 μg/ml of P11-17): can bind; Inhibition of cell necrosis ([4]; necrosis caused by purified 244-12 or by antibody in patients' synovial fluid (SF002, SF045)): can effectively inhibit cell necrosis; reaction with synovial fluid of a control patient without autoantibodies ([7]; sample SF010): negative; binding to cell necrosis-promoting antibodies in joint fluid of arthritis patients ([7]; samples SF024, SF045): bind
B2	no	no	Yes	Yes	–	no	–
B3	–	–	–	–	–	–	TNF-induced apoptosis (expression of active caspase-3) ([1]; L929 cells, antibody added to TNF): blocked; cell fate of L929 cells ([1]; antibody added together with TNF): necrosis; binding to TNF by ELISA test [8]: strongest; direct binding of antibody to cell surface ([9]; absence of TNF): cannot directly bind to cell surface; effect of antibody binding to TNF on binding of TNF to TNF receptors ([9]; confocal micrograph, L929 cells, TNF present): did not affect; TNF-induced apoptosis (expression of active caspase-3) [10]: blocked
